One test has as its system Zymoseptoria tritici. Briefly: Leaf blotch of wheat (SEPTTR) disease control on wheat seedlings. Particulars: for SEPTTR 1DP disease control rating, HV activity / SEPTTR 3DC disease control rating, HV activity: HV application at 100 ppm, wheat leaf blotch; for SEPTTR 1DP disease control rating, HV activity / SEPTTR 1DP, LV activity at 125.1 g/H (% Control rating): 1 Day Protectant; for SEPTTR 3DC disease control rating, HV activity / SEPTTR 3DC, LV activity at 125.1 g/H (% Control rating): 3 Day Curative. The arrangement: key to SEPTTR 1DP, HV activity at 100 ppm (% control rating) / SEPTTR 3DC, HV activity at 100 ppm (% control rating) / SEPTTR disease control, 1DP / SEPTTR disease control, 3DC / SEPTTR 1DP disease control rating, HV activity / SEPTTR 3DC disease control rating, HV activity / SEPTTR 3DC, LV activity at 125.1 g/H (% Control rating) / SEPTTR 1DP, LV activity at 125.1 g/H (% Control rating) / SEPTTR 1DP disease control rating, LV activity at 125.1 g/H / SEPTTR 3DC disease control rating, LV activity at 125.1 g/H / SEPTTR 3DC disease control rating, HV activity at 100 ppm / SEPTTR 1DP disease control rating, HV activity at 100 ppm / HV activity at 100 ppm SEPTTR 3DC (disease control rating) / HV activity at 100 ppm SEPTTR 1DP (disease control rating) / LV activity at 125.1 g/H SEPTTR 1DP (disease control rating) / LV activity at 125.1 g/H SEPTTR 3DC (disease control rating): A: > 80; B: ≤ 80; C: Not Tested; D: No Activity Observed in the Reported Assay. The format is in vivo.

For the next test, the system named is Puccinia triticina. Put plainly: Wheat brown rust (PUCCRT) disease control on wheat seedlings. The class given is in vivo. The settings on record: for PUCCRT 1DP disease control rating, HV activity / PUCCRT 3DC disease control rating, HV activity: HV application at 100 ppm, wheat brown rust; for PUCCRT 1DP disease control rating, HV activity / PUCCRT 1DP, LV activity at 125.1 g/H (% Control rating): 1 Day Protectant; for PUCCRT 3DC disease control rating, HV activity / PUCCRT 3DC, LV activity at 125.1 g/H (% Control rating): 3 Day Curative.

Where [1] appears, read: low volume application, 125.1 g/H.
The mark [2] stands for this setting: low volume application, 125.1 g/H, 1 day protectant.
[3] abbreviates: low volume application, 125.1 g/H, 3 day curative.
[4] abbreviates: high volume application, 100 ppm, 1 day protectant.
[5] abbreviates: high volume application, 100 ppm, 3 day curative.

Each structure is given as a SMILES string.

`COc1ccnc(C(=O)N[C@@H](C)C(=O)O[C@@H](C)[C@H](Oc2cccc(Cl)c2)C(C)C)c1O` [Cmpd 357]: in the test on Zymoseptoria tritici, the “SEPTTR 1DP disease control rating, HV activity” value was “A (> 80)” and the “SEPTTR 3DC disease control rating, HV activity” value is given as “A (> 80)”. In the test on Puccinia triticina, the “PUCCRT 1DP disease control rating, HV activity” value is “A (> 80)” and the “PUCCRT 3DC disease control rating, HV activity” value is reported as “A (> 80)”.
On to `CCCC(Oc1ccccc1)C(C)OC(=O)C(C)NC(=O)c1nccc(OC)c1O` (stereo not drawn) [Cmpd 438], for which, in the test with Zymoseptoria tritici, the “SEPTTR 1DP disease control rating, HV activity” value is reported as “A (> 80)” and the “SEPTTR 3DC disease control rating, HV activity” value was “A (> 80)”. Also, in the test on Puccinia triticina, the “PUCCRT 1DP disease control rating, HV activity” value is given as “A (> 80)” and the “PUCCRT 3DC disease control rating, HV activity” value is on record as “A (> 80)”.
Turning to `CC[C@H](Cc1ccccc1)[C@@H](Oc1ccccc1)[C@H](C)OC(=O)CNC(=O)c1nccc(OC)c1O` [Cmpd 312], in the test with Zymoseptoria tritici, the “SEPTTR 1DP disease control rating, HV activity” value was “D” and the “SEPTTR 3DC disease control rating, HV activity” value is listed as “D”. In the test with Puccinia triticina, the “PUCCRT 1DP disease control rating, HV activity” value is listed as “A (> 80)” and the “PUCCRT 3DC disease control rating, HV activity” value was “A (> 80)”.
`COc1ccnc(C(=O)N[C@@H](C)C(=O)O[C@@H](C)[C@H](Oc2ccc(C(F)(F)F)cc2)C(C)C)c1OC(C)=O` [Cmpd 629]: in the test with Zymoseptoria tritici (setting [1]), the “SEPTTR 1DP, LV activity at 125.1 g/H (% Control rating)” value (“SEPTTR 1DP … (% Control rating)” below) is listed as “B (≤ 80)” and the “SEPTTR 3DC, LV activity at 125.1 g/H (% Control rating)” value (shortened to “SEPTTR 3DC … (% Control rating)”) is listed as “B (≤ 80)”. Besides, in the test on Puccinia triticina (setting [1]), the “PUCCRT 1DP, LV activity at 125.1 g/H (% Control rating)” value (“PUCCRT 1DP … (% Control rating)” for short) is “A (> 80)” and the “PUCCRT 3DC, LV activity at 125.1 g/H (% Control rating)” value (“PUCCRT 3DC … (% Control rating)” below) is “A (> 80)”.
For the compound `COc1ccnc(C(=O)N[C@@H](C)C(=O)O[C@@H](C)[C@H](Oc2ccc3ccccc3c2)C(C)C)c1OCOC(C)=O` [Cmpd 622], in the test with Zymoseptoria tritici (setting [1]), the “SEPTTR 1DP … (% Control rating)” value is listed as “D” and the “SEPTTR 3DC … (% Control rating)” value is listed as “B (≤ 80)”. Further, in the test on Puccinia triticina (setting [1]), the “PUCCRT 1DP … (% Control rating)” value is given as “A (> 80)” and the “PUCCRT 3DC … (% Control rating)” value is on record as “A (> 80)”.
As to `COc1ccnc(C(=O)NCC(=O)OC(C)C(Oc2ccccc2)C(C)C)c1OCOC(C)=O` (stereo not drawn) [Cmpd 862], the “SEPTTR 1DP disease control rating, LV activity at 125.1 g/H” value with Zymoseptoria tritici (setting [2]) is “D”. Moreover, the “SEPTTR 3DC disease control rating, LV activity at 125.1 g/H” value in the test on Zymoseptoria tritici (setting [3]) is listed as “D”. In addition, in the test on Puccinia triticina (setting [2]), the “PUCCRT 1DP disease control rating, LV activity at 125.1 g/H” value is on record as “A (> 80)”. In the test on Puccinia triticina (setting [3]), the “PUCCRT 3DC disease control rating, LV activity at 125.1 g/H” value is “A (> 80)”.
`CCCO[C@@H]([C@H](C)OC(=O)[C@H](C)NC(=O)c1nccc(OC)c1O)[C@H](CC)Oc1ccccc1` [Cmpd 326, (S)-(2S,3S,4S)-4-phenoxy-3-propoxyhexan-2-yl-2-(3-hydroxy-4-methoxypicolinamido)propanoate]: in the test on Zymoseptoria tritici, the “SEPTTR 1DP disease control rating, HV activity” value is reported as “D” and the “SEPTTR 3DC disease control rating, HV activity” value was “D”. Besides, in the test with Puccinia triticina, the “PUCCRT 1DP disease control rating, HV activity” value was “A (> 80)” and the “PUCCRT 3DC disease control rating, HV activity” value is given as “A (> 80)”.
For the compound `CCC[C@@H](Oc1ccc(C)cc1)[C@H](C)OC(=O)[C@H](C)NC(=O)c1nccc(OC)c1O` [Cmpd 1012], the “SEPTTR 1DP disease control rating, HV activity at 100 ppm” value with Zymoseptoria tritici (setting [4]) was “B (≤ 80)”. Moreover, the “SEPTTR 3DC disease control rating, HV activity at 100 ppm” value with Zymoseptoria tritici (setting [5]) is given as “B (≤ 80)”. Further, in the test on Puccinia triticina (setting [4]), the “PUCCRT 1DP disease control rating, HV activity at 100 ppm” value was “A (> 80)”. In addition, the “PUCCRT 3DC disease control rating, HV activity at 100 ppm” value in the test on Puccinia triticina (setting [5]) is “A (> 80)”.
As to `COc1ccnc(C(=O)N[C@@H](C)C(=O)O[C@@H](C)[C@H](Oc2ccc(Cl)cc2Cl)C(C)C)c1OC(C)=O` [Cmpd 567], in the test on Zymoseptoria tritici (setting [1]), the “SEPTTR 1DP … (% Control rating)” value is listed as “D” and the “SEPTTR 3DC … (% Control rating)” value is “A (> 80)”. Besides, in the test on Puccinia triticina (setting [1]), the “PUCCRT 1DP … (% Control rating)” value is listed as “A (> 80)” and the “PUCCRT 3DC … (% Control rating)” value is on record as “A (> 80)”.

For the origin of these results see patent US20180000085A1, “USE OF PICOLINAMIDE COMPOUNDS WITH FUNGICIDAL ACTIVITY” (DOW AGROSCIENCES LLC, priority 2014, published 2018).
